Several values for one entry are separate records, joined by “and”; a condition that tells them apart may be missing. Equal values may be shown once.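 In this assay, cells in 96-well plates receive the compound at five concentrations for 48 hours. Endpoints are linearly interpolated between the surrounding concentrations. Abbreviation: GI50, concentration required for 50% inhibition of growth. At the TGI there is no net growth.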
Tests used:
Experiment in all cases: NCI tumour cell line growth inhibition, 48 h
[1] = test system: A549 NSCLC
[2] = test system: CAKI-1 renal
[3] = test system: EKVX NSCLC
[4] = test system: HCC-2998 colon
[5] = test system: HCT-116 colon
[6] = test system: HL-60(TB) leukemia
[7] = test system: KM12 colon
[8] = test system: MALME-3M melanoma
[9] = test system: OVCAR-3 ovarian
[10] = test system: RXF 393 renal
[11] = test system: SK-MEL-2 melanoma
[12] = test system: U251 CNS
[13] = test system: UACC-257 melanoma
[14] = test system: LOX IMVI melanoma
[15] = test system: MDA-N
[16] = test system: NCI/ADR-RES ovarian

Structure (SMILES)	TGI [1]	TGI [2]	TGI [3]	TGI [4]	TGI [5]	TGI [6]	TGI [7]	TGI [8]	TGI [9]	TGI [10]	TGI [11]	TGI [12]	TGI [13]	TGI [14]	TGI [15]	TGI [16]	GI50 [6]	GI50 [11]
N#CCC(=O)Nc1ccccc1O	> 100 µM	> 100 µM	> 100 µM	> 100 µM	> 100 µM	> 100 µM	> 100 µM	> 100 µM	> 100 µM	> 100 µM	> 100 µM	> 100 µM	> 100 µM					
CN1C(=O)N(c2nc3ccccc3[nH]2)C(C)(C)C1=O	> 100 µM		> 100 µM		> 100 µM	> 100 µM	> 100 µM	> 100 µM	> 100 µM	> 100 µM	> 100 µM	> 100 µM	> 100 µM	> 100 µM				
COC(=O)C(C#N)C1NC(=O)c2ccccc21 (centres undefined)	> 100 µM		> 100 µM	> 100 µM	> 100 µM	> 100 µM	> 100 µM	> 100 µM	> 100 µM	> 100 µM		> 100 µM	> 100 µM	> 100 µM				
CC(C)=CCOc1ccc(-c2coc3cc4c(c(O)c3c2=O)C=CC(C)(C)O4)cc1	> 100 µM		> 100 µM	> 100 µM	> 100 µM	> 100 µM	> 100 µM		> 100 µM	> 100 µM		> 100 µM	> 100 µM	> 100 µM				
C[C@]12CC[C@H](O)CC1=CC[C@@H]1[C@@H]2CC[C@]2(C)NC(=O)/C(=C\c3ccccc3)C[C@@H]12	33.4 µM	73.1 µM	28.4 µM	30.7 µM	37 µM		30.3 µM	30.3 µM	26.2 µM	27.9 µM	31.8 µM	30.3 µM	48.6 µM	42.5 µM	69.8 µM	53 µM		
COc1ccc(NC(/C(C(=O)C(=O)/C=C(\O)c2ccccc2)=C(\O)c2ccccc2)c2ccc(OC)cc2)cc1 (centres undefined)	> 100 µM	> 100 µM	50.9 µM	62.3 µM	> 100 µM	75.3 µM	> 100 µM	75.6 µM	94.1 µM	> 100 µM	89 µM	> 100 µM	> 100 µM			> 100 µM		
CCOC(=O)/C(=C\c1c(C)[nH]c2ccccc12)P(=O)(OCC)OCC	> 100 µM	> 100 µM	> 100 µM	> 100 µM	> 100 µM		> 100 µM	> 100 µM	> 100 µM	> 100 µM		> 100 µM	> 100 µM	> 100 µM	> 100 µM	> 100 µM		
COc1cc(/C=N/n2c(C)n[nH]c2=O)cc(OC)c1OC	> 100 µM	> 100 µM	> 100 µM	> 100 µM	> 100 µM		> 100 µM	> 100 µM	> 100 µM	> 100 µM	> 100 µM	> 100 µM	> 100 µM		> 100 µM	> 100 µM		
Cc1cc(C)c(C(=O)C(C)C(c2ccccc2)c2ccc(Cl)cc2)c(C)c1 (centres undefined)	> 100 µM	> 100 µM	> 100 µM		> 100 µM	> 100 µM	> 100 µM	71.9 µM and > 100 µM	> 100 µM	> 100 µM	> 100 µM	> 100 µM	> 100 µM				> 100 µM and 39.6 µM	9.38 µM and 32.1 µM
CC(O)C1OC(n2ccc(=O)[nH]c2=O)CC1n1cncn1 (centres undefined)	> 100 µM	> 100 µM	> 100 µM	> 100 µM	> 100 µM	> 100 µM	> 100 µM	> 100 µM	> 100 µM	> 100 µM	> 100 µM	> 100 µM	> 100 µM	> 100 µM				
O=C(NCc1ccccc1)C1C(=O)C(=O)N(Cc2ccccc2)C1=O (centres undefined)	> 100 µM	> 100 µM	> 100 µM	> 100 µM	> 100 µM	> 100 µM	> 100 µM	> 100 µM	> 100 µM	> 100 µM	> 100 µM	> 100 µM	> 100 µM	> 100 µM				
C/C(=N/N)c1sc(-c2nc(C)c(/C(C)=N\N)s2)nc1C	> 100 µM	> 100 µM	> 100 µM	> 100 µM	> 100 µM	> 69.3 µM	> 100 µM	> 100 µM	> 100 µM	> 100 µM	> 100 µM	> 100 µM	> 100 µM	> 75.2 µM				
CC(C)(C)NC(=S)N/N=C/c1ccccn1	> 100 µM	> 100 µM	> 100 µM	> 100 µM	1.02 µM		> 100 µM	> 100 µM	> 100 µM	> 100 µM	> 100 µM	> 100 µM		> 76.7 µM	> 100 µM	> 100 µM		
Oc1ccc(/C=N/c2nccs2)c(O)c1	> 100 µM	> 100 µM	> 100 µM	> 100 µM	> 100 µM		> 100 µM	> 100 µM	> 100 µM	> 100 µM			> 100 µM	> 100 µM	> 100 µM	> 100 µM		
COC1OC(Cn2cc([N+](=O)[O-])nc2C)C(O)C(O)C1O (centres undefined)	> 100 µM	> 100 µM	> 100 µM	> 100 µM	> 100 µM		> 100 µM	> 100 µM	> 100 µM	> 100 µM	> 100 µM	> 100 µM	> 100 µM		> 100 µM	> 100 µM		
C/C(=C\CC/C=C(\C)CC/C=C(\C)CCC1SC1(C)C)CC/C=C(\C)CCC1OC1(C)C (centres undefined)	> 100 µM	> 100 µM	> 100 µM	> 100 µM	> 100 µM	> 100 µM	> 100 µM	> 100 µM	> 100 µM	> 100 µM	> 100 µM	> 100 µM						

Source: PubChem BioAssay (NCI)
